Active and inactive are the calls of the source. No rule for the calls is given here. Where a SMILES comes first, the peptide text is derived from it.

From PubChem BioAssay AID1549 (Sanford-Burnham Center for Chemical Genomics, 2009) come the findings set out here.

The test deals with Influenza A virus M2 proton channel (A/TW/4845/1999 H1N1). Briefly: NMR binding screen, influenza A virus M2 proton channel, Kd (AID 1549). The conditions noted are these: M2 protein.
For orientation: Kd means the free concentration of one partner at which half of the binding sites on the other are occupied at equilibrium, for simple one-to-one binding. On to `Cc1ccc2nc(SCCC#N)nc(C)c2c1`, for which the Kd is > 4 mM (inactive).

For the compound `Nc1ncnc2c1ncn2C1C[C@H](O)[C@@H](CO)O1` (stereo not given in full), the Kd was > 4 mM (inactive). For the compound `O=C(Nc1ccccc1)C(=O)NC1CC1`, the Kd was > 4 mM (inactive). In the case of `CC(CC(=O)NN)C1(O)CCCCC1` (stereo not given), the Kd is > 4 mM (inactive).

With `CN1C(=O)/C(=C/c2ccccc2O)NC1=S`, the Kd was > 4 mM (inactive). Regarding `CC(=O)c1ccc(NC(=O)c2ocnc2C)cc1`, the Kd was > 4 mM (inactive). Consider `O=C(c1ccc(F)cc1)N1CCOCC1`, for which the Kd is > 4 mM (inactive). The value for `CNc1nc(N)c(C(=O)C(C)(C)C)s1` was > 4 mM (inactive); that for `CC(=O)N1CCn2c3c(c(=O)c4cc(C)ccc42)CCC31` (stereo not given) was > 4 mM (inactive); that for `NC(=O)CS(=O)(=O)c1ccc2ccccc2c1` was > 4 mM (inactive). For the compound `CC1(C)CC2(CCO1)NCCN1C(=O)CSC12` (stereo not given), the Kd was > 4 mM (inactive). The figure for `O=C(NCc1ccco1)c1nc2ncccn2n1` is > 4 mM (inactive); for `CN(C)S(=O)(=O)NCc1ccc2c(c1)OCO2` it is > 4 mM (inactive); for `Cn1c(O)c(C2=NC(=S)NC2=O)c2ccccc21` it is > 4 mM (inactive). On to `Cc1ccc(Nc2nnns2)cc1C`, for which the Kd is > 4 mM (inactive).

Regarding `Cc1nc2nc(-c3ccco3)nn2c(C)c1Cl`, the Kd is > 4 mM (inactive).

`Clc1ccccc1OCc1nc(-c2ccccn2)no1`: the Kd is > 4 mM (inactive). `O=c1cc(-c2ccccc2)oc2cc(O)cc(O)c12`: the Kd is > 4 mM (inactive). With `CC(C)C(C)/C=C/C(C)[C@H]1CCC2C3=CCC4CC(=O)CC[C@]4(C)C3CC[C@@]21C` (stereo not given in full), the Kd is > 4 mM (inactive). In the case of `C=C1C2CC[C@@]3(C)[C@H](c4ccoc4)OC(=O)C[C@]13O[C@H]1CC(O)C(C)(C)C(CC(=O)OC)[C@@]21C` (stereo not given in full), the Kd was > 4 mM (inactive). Consider `CC(=O)c1cccc(NC2=NCC(C)(C)S2)c1`, for which the Kd is > 4 mM (inactive). In the case of `COc1cc(OC)c(OC)cc1C=O`, the Kd is > 4 mM (inactive). In the case of `CCOC(=O)c1c(C)n([O-])c2ccccc2[n+]1=O`, the Kd is > 4 mM (inactive). The figure for `Cc1ccc(C(C)C)cc2c(C)ccc1-2` is > 4 mM (inactive).

As for `CC(=O)OC1CCC23C(=O)OC45CCC(C6=CC(=O)OC6)C4(C)CCC2C5CCC3(O)C1` (stereo not given), the Kd was > 4 mM (inactive).

Regarding `Fc1cc2nccnc2cc1N1CCSCC1`, the Kd is > 4 mM (inactive). In the case of `Cc1nnc2ccc(N3CCCC3)nn12`, the Kd is > 4 mM (inactive).

As to `Cc1occc(=O)c1O`, the Kd is > 4 mM (inactive). For `CC(=O)OCC[C@H](C)CCC=C(C)C`, the Kd is > 4 mM (inactive). The value for `CC(=O)N1CC2(C)CN(C(C)=O)CC(C)(C1)C2` was > 4 mM (inactive). Take `O=C(O)c1ccc(-n2ccnc2)cc1`: the Kd is > 4 mM (inactive). Take `Cc1nc2nc(COc3ccccc3)nn2c(C)c1Cl`: the Kd was > 4 mM (inactive).

For `O=C(O)CN1CCNCC1`, the Kd is > 4 mM (inactive). Consider `CC(=O)Oc1cc2c(c(C)c1OC(C)=O)CC=C1[C@@]2(C)CC[C@@]2(C)C3C[C@](C)(C(=O)O)CC[C@]3(C)CC[C@]12C` (stereo not given in full), for which the Kd was > 4 mM (inactive). For the compound `Cc1cccn2cc(CNc3ccccc3)nc12`, the Kd was > 4 mM (inactive).

Take `O=C1CN(C(=O)CN2CCOCC2)c2ccccc2N1`: the Kd is > 4 mM (inactive).

With `COc1ccc(-c2ccc(=O)n(CC(N)=O)n2)cc1`, the Kd is > 4 mM (inactive).

For the compound `O=C(O)c1ccc(-c2ccccn2)s1`, the Kd was > 4 mM (inactive). The value for `OC1CCN(Cc2ccc[nH]2)CC1` was > 4 mM (inactive). Consider `Cc1sc2nc[nH]c(=S)c2c1C`, for which the Kd is > 4 mM (inactive). As to `CC(C)(C)NC(=O)N1CCC(C(=O)O)CC1`, the Kd is > 4 mM (inactive). As to `CCOc1ccc(N2C(=O)CCC2=O)cc1`, the Kd is > 4 mM (inactive). As to `COc1cc(NC(=O)c2ccccc2)c(C)cc1N`, the Kd is > 4 mM (inactive). On to `O=C(O)c1cnc2n(c1=O)CCS2`, for which the Kd is > 4 mM (inactive). On to `Nc1nc2ccc(C(=O)O)cc2s1`, for which the Kd was > 4 mM (inactive). For the compound `CSc1nnc2ccc(-c3cccnc3)nn12`, the Kd was > 4 mM (inactive).

Regarding `O=c1c(Cl)c(NCCO)ncn1-c1ccccc1`, the Kd is > 4 mM (inactive). Turning to `COC(=O)[C@]1(C)CC[C@]2(C)CC[C@]3(C)C4=CC=C5C(=CC(=O)C(O)=C5C)[C@]4(C)CC[C@@]3(C)[C@@H]2C1`, the Kd is > 4 mM (inactive). Take `O=c1n(-c2ccccc2)c(=O)n2n1CCCC2`: the Kd is > 4 mM (inactive). As for `CC[C@@H]1[C@@H](O)N2C3C[C@H]1C1C(O)[C@]4(C[C@@H]12)c1ccccc1N(C)[C@@H]34` (stereo not given in full), the Kd was > 4 mM (inactive). As to `CC(=O)O[C@@H]1CC2C(C)(C)C=CC(=O)[C@]2(C)C2CC[C@@]3(C)[C@H](c4ccoc4)OC(=O)C4OC43[C@@]21C` (stereo not given in full), the Kd was > 4 mM (inactive).

For `CN1CCN(c2ccc(N)cc2)CC1`, the Kd is > 4 mM (inactive).

In the case of `COC(=O)c1c(SC)nc(-c2ccccc2)[nH]c1=O`, the Kd is > 4 mM (inactive).

For the compound `CC1SC(=NC(=O)c2ccncc2)NC1=O` (stereo not given), the Kd is > 4 mM (inactive). With `Cc1ccc(NC(=O)c2ccccc2)s1`, the Kd was > 4 mM (inactive).

`Cc1cc(C)c(C#N)c(N2CCCC2)n1`: the Kd is > 4 mM (inactive). With `C=C(C)[C@H]1CC=C(C(=O)O)CC1`, the Kd was > 4 mM (inactive). As for `O=C(O)c1scc2c1CCCC2`, the Kd was > 4 mM (inactive). Consider `Cc1c(C(=O)Nc2ccccc2)sc(N)c1C(N)=O`, for which the Kd is > 4 mM (inactive). The figure for `Cc1cc(NC(=O)Cc2cccs2)no1` is > 4 mM (inactive). With `CS(=O)(=O)N1CCN(C(=O)Cc2cccs2)CC1`, the Kd was > 4 mM (inactive).

Regarding `Nc1cc(=O)[nH]c(=S)n1-c1ccc(F)cc1`, the Kd was > 4 mM (inactive). The value for `Cc1cc(O)cc(O)c1C(=O)O` was > 4 mM (inactive); that for `CC(=O)N[C@@H](CC(=O)O)C(=O)N[C@@H](CCC(=O)O)C(=O)O` (Ac-Asp-Glu-OH) was > 4 mM (inactive); that for `O=C(c1ccncc1)N1CCN(C(=O)c2ccco2)CC1` was > 4 mM (inactive). In the case of `C=CCc1ccc(OC(=O)c2ccccc2)c(OC)c1`, the Kd was > 4 mM (inactive). In the case of `CC(C)c1c(O)ccc2c1CCC1[C@@](C)(C=O)CCC[C@]21C` (stereo not given in full), the Kd is > 4 mM (inactive). With `Cc1n[nH]c(=O)nc1N1CCN(c2ccccc2)CC1`, the Kd was > 4 mM (inactive). The value for `NC(=O)CSc1nnc2ccc(-c3ccccn3)nn12` was > 4 mM (inactive); that for `Cc1ccn(S(=O)(=O)c2ccc(C(C)(C)C)cc2)n1` was > 4 mM (inactive); that for `Cc1cc(C)nc(/N=C(/N)N2CCN(C)CC2)n1` was > 4 mM (inactive).

For `Cn1c(CO)nc2cc(N)ccc21`, the Kd is > 4 mM (inactive). The value for `O=C(O[C@@H]1Cc2c(O)cc(O)cc2O[C@@H]1c1cc(=O)c(O)c2c(O)c(O)cc([C@H]3Oc4cc(O)cc(O)c4C[C@H]3O)c2c1)c1cc(O)c(O)c(O)c1` was > 4 mM (inactive); that for `CSc1nc(C)c(Oc2ccccc2)c(=O)n1C` was > 4 mM (inactive). With `Cc1noc(C)c1C(=O)N1CCC(Cc2ccccc2)CC1`, the Kd is > 4 mM (inactive).

On to `COc1ccc2c(c1)O[C@H]1c3ccc(OC)cc3OC[C@@H]21`, for which the Kd is > 4 mM (inactive). Consider `Cc1ccc2c(c1)CCCN2C(=O)c1ccncc1`, for which the Kd was > 4 mM (inactive). Regarding `COc1ccc2c(c1OC)C(=O)N(c1ncn[nH]1)C2`, the Kd is > 4 mM (inactive). Take `NC12CC3CC(C1)CC(C(=O)O)(C3)C2`: the Kd was > 4 mM (inactive). On to `NC(=O)C(=O)Nc1nc(-c2ccccc2)cs1`, for which the Kd was > 4 mM (inactive). On to `O=C(CSc1ncccn1)Nc1nccs1`, for which the Kd was > 4 mM (inactive). Consider `O=C(CSc1cccc2cccnc12)N1CCCC1`, for which the Kd is > 4 mM (inactive). Turning to `O=C(Cc1ccccc1)Nc1c[nH]c(=O)[nH]c1=O`, the Kd was > 4 mM (inactive). Turning to `Cc1cc(C)n(-c2nncn2N)n1`, the Kd is > 4 mM (inactive).

For the compound `CC1(C)CC2C1CCC1(C)OC2(C)CCC1O` (stereo not given), the Kd is > 4 mM (inactive). The figure for `COc1cc([C@@H]2c3cc4c(cc3[C@H](OC(C)=O)[C@H]3COC(=O)[C@@H]23)OCO4)cc(OC)c1OC` is > 4 mM (inactive); for `COc1cc2c(cc1OC)Cc1cc(OC)c(OC)cc1Cc1cc(OC)c(OC)cc1C2` it is > 4 mM (inactive). Regarding `O=C1NC(=S)N/C1=C/c1ccc(O)c(Cl)c1`, the Kd was > 4 mM (inactive). As to `CNC(=O)C1COc2ccccc2O1` (stereo not given), the Kd was > 4 mM (inactive). On to `O=C(O)c1cncc(-c2ccccc2)c1`, for which the Kd is > 4 mM (inactive). The figure for `CNc1nc(OC)nc(N2CCOCC2)n1` is > 4 mM (inactive); for `COCc1cc(=O)oc2cc(O)c(Cl)cc12` it is > 4 mM (inactive); for `COc1ccc2c(C)cc(=O)oc2c1` it is > 4 mM (inactive). Take `N=C1/C(=C\c2ccccc2)C(=O)N=C2SC=NN12`: the Kd is > 4 mM (inactive). As to `O=C(Nc1c[nH]c(=O)[nH]c1=O)c1ccccc1F`, the Kd is > 4 mM (inactive). `COc1cc2c(cc1OC)-c1cc3ccc(OC)c(OC)c3c[n+]1CC2`: the Kd was > 4 mM (inactive). For `CC(=O)NC1=C(N(C)C)C(=O)c2ccccc2C1=O`, the Kd is > 4 mM (inactive). Regarding `CC1=C2C(=CO[C@H](C)[C@H]2C)C(=O)C(C(=O)O)=C1O`, the Kd is > 4 mM (inactive). The value for `CNC(=O)Oc1ccc2c(c1)[C@]1(C)CCN(C)[C@@H]1N2C` was > 4 mM (inactive); that for `O=S(=O)(Nc1cccc2cn[nH]c12)c1ccc(F)cc1` was > 4 mM (inactive).
